# ChEMBL document CHEMBL1159148, “Myo-inositol 1,4,6-trisphosphate: A new synthetic Ca2+-mobilising inositol phosphate” (Bioorg Med Chem Lett, 1993)
# Species on record: Oryctolagus cuniculus
# Assay: Compound was evaluated for its ability to release [Ca2+] from permeabilised rabbit platelets
# Format: functional
row,EC50 [nM],SMILES
1,180,"O=P(O)(O)O[C@@H]1[C@H](O)[C@H](O)[C@@H](OP(=O)(O)O)[C@H](OP(=O)(O)O)[C@H]1O (stereo in doubt; form 1) [INS(1,4,5)P3]"
2,2070,"O=P(O)(O)O[C@@H]1[C@H](O)[C@H](O)[C@@H](OP(=O)(O)O)[C@H](OP(=O)(O)O)[C@H]1O (stereo in doubt; form 2) [INS(1,4,5)P3]"
